According to patent US20120328602A1, “COMPOSITIONS AND METHODS FOR TREATING CONDITIONS ASSOCIATED WITH CERAMIDE BIOSYNTHESIS” (priority 2007, published 2012):
Like-named read-outs stand apart in the source and are kept apart here.

What was measured:
mice [1] = experiment: Rotarod motor function test; assay type: in vivo; details: myriocin 0.4 mg/kg, FB1 1 mg/kg, D609 40 mg/kg; fifteen, thirty, and sixty minutes after administration; n=4; vs vehicle
Procedure: Mice were trained before experimentation for their ability to remain for one-hundred twenty seconds on a revolving Rotarod apparatus (accelerating units increase from 3.5 to 35 rpm in five minutes). Mice (n=4 per group) were injected with an i.p. injection of the highest dose of FB1 (1 mg/kg), myriocin (0.4 mg/kg), D609 (40 mg/kg) used to block antinociceptive tolerance or its vehicle. Mice (n=4 per group) were tested and examined for motor […] on the Rotarod at fifteen, thirty, and sixty minutes after drug administration as described in the method section. The latency time to fall off the Rotarod was determined. A cut-off time of one-hundred twenty seconds was used.

ceramide = experiment: immunohistochemistry for ceramide in spinal cord (Example 3); details: co-administered with morphine; FB1 1 mg/kg/d, myriocin 0.4 mg/kg/d, D609 40 mg/kg/d
[2] = tested on: serine palmitoyl transferase (SPT); experiment: serine palmitoyl transferase (SPT) activity; assay type: in vivo, mice; details: co-administration of morphine with myriocin 0.4 mg/kg/d, n=10
Procedure: SPT activity was determined by measuring the incorporation of [^3H] serine into 3-ketosphinganine following the method previously described (Williams et al., 1984). The results were normalized by the samples' protein concentration.

mice [3] = experiment: hot plate, morphine-induced antinociceptive tolerance (Examples 3-5); assay type: in vivo, Male CD-1 mice; details: for development of tolerance, dose-dependence: co-administered with morphine, FB1 0.1-1 mg/kg/d, myriocin 0.1-0.4 mg/kg/d, D609 10-40 mg/kg/d; for development of tolerance, dose-dependence / hot plate latencies following s.c. saline / difference in responses to acute morphine (0.3-3 mg/kg), drug vs vehicle: n=10; for hot plate latencies following s.c. saline: day five, highest dose of drug, no morphine; for difference in responses to acute morphine (0.3-3 mg/kg), drug vs vehicle: highest dose over five days: FB1 1 mg/kg/d, myriocin 0.4 mg/kg/d, D609 40 mg/kg/d; for antinociceptive effects when tested alone: highest dose; for % MPE: tolerant mice, single i.p. dose fifteen minutes before acute morphine 3 mg/kg: FB1 1 mg/kg, myriocin 0.4 mg/kg, D609 40 mg/kg, n=6
Procedure: Nociceptive thresholds were determined by measuring latencies (in seconds) of mice placed in a transparent glass cylinder on a hot plate (Ugo Basile, Italy) maintained at 52° C. Determination of antinociception was assessed between 7 and 10:00 A.M. All injections were given intra-peritoneally (i.p.) or subcutaneously (s.c.) in a volume of 0.1 and 0.3 ml, respectively, at approximately 7 A.M. and 4 P.M. Responses indicative of nociception included intermittent lifting and/or licking of the hindpaws or escape behavior. […] Results were expressed as percentage of maximum possible antinociceptive effect, which was calculated as follows: (response latency−baseline latency)/(cut-off latency−baseline latency)×100. A cut-off latency of twenty seconds was employed to prevent tissue damage. Ten mice per group were used and all experiments were conducted with the experimentors blinded to treatment conditions. […] The following experimental groups were used: […]
Vehicle (V) Group: In this group, mice were injected twice per day for four days with an i.p, injection of saline and a s.c. injection of saline.

mice [4] = assay type: in vivo; details: for responses to acute morphine in control groups vs control groups treated with drug: no repeated morphine; for development of antinociceptive tolerance: co-administration with morphine, i.p., FB1 1 mg/kg, myriocin 0.2 mg/kg, D609 40 mg/kg; for antinociceptive effects when tested alone: drug alone (not shown)
[5] = molecular target: T1, acid sphingomyelinase (ASMase) (Mus musculus, UniProt Q04519); experiment: sphingomyelinase activity in spinal cord tissues, acid isoforms (Amplex Red kit); assay type: in vivo, mice; details: D609 40 mg/kg/d co-administered with morphine
T1 construct: spinal cord tissues were homogenized in buffers for each specific assay; from tissue; host or cells: mouse spinal cord homogenate (Na acetate pH 5.0 lysis buffer)
T1 sequence (Q04519 45-627): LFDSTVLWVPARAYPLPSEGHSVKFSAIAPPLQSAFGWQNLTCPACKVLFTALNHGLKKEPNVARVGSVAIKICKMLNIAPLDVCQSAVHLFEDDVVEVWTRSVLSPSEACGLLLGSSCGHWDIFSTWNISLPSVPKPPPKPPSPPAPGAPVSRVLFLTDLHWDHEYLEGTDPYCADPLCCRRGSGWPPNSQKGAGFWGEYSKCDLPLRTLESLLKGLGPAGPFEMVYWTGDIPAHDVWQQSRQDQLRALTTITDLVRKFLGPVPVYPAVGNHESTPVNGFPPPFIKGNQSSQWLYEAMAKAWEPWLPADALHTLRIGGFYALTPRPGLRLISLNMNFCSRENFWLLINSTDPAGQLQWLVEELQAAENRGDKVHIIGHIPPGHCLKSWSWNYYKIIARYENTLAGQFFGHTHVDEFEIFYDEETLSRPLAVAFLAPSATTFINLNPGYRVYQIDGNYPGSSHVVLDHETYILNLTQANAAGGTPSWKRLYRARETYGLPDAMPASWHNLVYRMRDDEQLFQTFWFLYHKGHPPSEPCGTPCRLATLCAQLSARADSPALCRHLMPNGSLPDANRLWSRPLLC
Procedure: Sphingomyelinase activity was measure using Amplex® Red Sphingomyelinase Assay Kit (Molecular Probes, Eugene, Oreg.) following manufacturer's instructions. […] For the acid isoforms, Na acetate (100 mM and pH 5.0) lysis buffer was used. 2 mM EDTA was added to the lysis buffer for detection of the insoluble isoform. For neutral isoform detection, the tissues were homogenized in Hepes (20 mM, pH 7.4) lysis buffer. The kinetics for sphingomyelinase activity was measured in a fluorescence microplate reader for two hours followed by normalization per protein concentration of the sample. Hydrogen peroxide and sphingomyelinase were used as positive controls.

neutral SMase = details: at 5 mM GSH; cited from earlier work
acid SMase = molecular target: T2, acid SMase (Homo sapiens, UniProt P17405); details: at 30 μM; cited from earlier work
T2 sequence (P17405 47-631): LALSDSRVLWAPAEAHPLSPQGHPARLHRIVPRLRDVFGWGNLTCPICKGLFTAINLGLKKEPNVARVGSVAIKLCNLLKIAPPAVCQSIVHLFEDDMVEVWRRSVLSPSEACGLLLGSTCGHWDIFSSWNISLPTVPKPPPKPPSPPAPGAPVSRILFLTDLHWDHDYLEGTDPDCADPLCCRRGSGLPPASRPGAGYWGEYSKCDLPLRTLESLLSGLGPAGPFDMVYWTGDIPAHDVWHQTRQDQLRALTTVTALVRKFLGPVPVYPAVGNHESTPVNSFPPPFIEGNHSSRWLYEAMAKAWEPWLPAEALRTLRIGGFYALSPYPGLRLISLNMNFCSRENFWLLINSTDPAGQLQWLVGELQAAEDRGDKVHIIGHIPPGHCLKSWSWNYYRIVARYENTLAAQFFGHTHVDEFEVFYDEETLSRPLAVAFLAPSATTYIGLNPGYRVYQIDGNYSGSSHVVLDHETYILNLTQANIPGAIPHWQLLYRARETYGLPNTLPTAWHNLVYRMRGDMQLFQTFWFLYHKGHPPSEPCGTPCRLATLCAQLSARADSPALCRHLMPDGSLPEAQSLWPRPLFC

Compound	Rotarod motor function deficits (mice [1])	ceramide immunostaining (ceramide)	activation of SPT [2]	development of tolerance, dose-dependence (mice [3])	hot plate latencies following s.c. saline (mice [3])	difference in responses to acute morphine (0.3-3 mg/kg), drug vs vehicle (mice [3])	antinociceptive effects when tested alone (mice [3])	% MPE (mice [3])	responses to acute morphine in control groups vs control groups treated with drug (mice [4])	development of antinociceptive tolerance (mice [4])	antinociceptive effects when tested alone (mice [4])	increased activity of ASMase [5]	inhibition of neutral SMase (neutral SMase)	inhibition of acid SMase (acid SMase)
CCCCCCC(=O)CCCCCC/C=C/C[C@@H](O)[C@H](O)[C@@](N)(CO)C(=O)O [myriocin]	did not show signs of Rotarod deficits	blocked	blocked, as expected, the activation of SPT	blocked	six and seven	statistically insignificant	none of FB1, myriocin, or D609 had antinociceptive effects	13±2%	similar	blocked antinociceptive tolerance	no antinociceptive effects			
S=C([S-])OC1CC2CC1C1CCCC21.[K+] (stereo not drawn) [D609, tricyclodecan-9-xanthogenate]	did not show signs of Rotarod deficits	blocked		blocked in a dose-dependent manner	six and seven	statistically insignificant	none of FB1, myriocin, or D609 had antinociceptive effects	11±2%	similar	blocked antinociceptive tolerance	no antinociceptive effects	blocked the increased activity of ASMase		
N[C@@H](CCC(=O)N[C@@H](CS)C(=O)NCC(=O)O)C(=O)O [Glutathione]													greater than 95%	
COc1ccc(CCN(C)CCCOc2ccc(S(=O)(=O)c3c(C(C)C)cn4ccccc34)cc2)cc1OC [SR33557]														72%
